Data published in PubChem BioAssay AID624452 (Sanford-Burnham Center for Chemical Genomics, 2012).

Test system: human liver microsomes, compound remaining, LC-MS
Assay: metabolic stability in human liver microsomes, ADME assay, biochemical, with and without NADPH, LC-MS, set 2 (AID 624452);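 note: compound left measured after 60 min microsomal incubation at 37 °C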
Settings: at 1 µM; for percent remaining without NADPH: measured here: stability without NADPH control

SMILES	percent remaining with NADPH	percent remaining without NADPH
Cc1ccc(NS(=O)(=O)c2ccc3c(c2)CCC(=O)N3)cc1C	6.36%	66.3%
O=C1NCCCc2c1oc1ccc(O)cc21	62.1%	63%
CC(=O)c1ccc(N2CCN(S(=O)(=O)c3ccc4c(c3)CC(=O)N4)CC2)cc1	49%	69.8%
NC(=O)C1CCN(c2nc(-c3ccc(Br)cc3)cs2)CC1	56.9%	62%
CCCN(CCC)CCNC(=O)C1CCN(Cc2nc(-c3ccc(Cl)cc3)oc2C)CC1	13.5%	75.6%
CN(C)c1nc(N)nc(CSc2nnnn2-c2cccc3ccccc23)n1	0.13%	77.6%
O=[N+]([O-])c1ccc(CN2CCOCCOCCN(Cc3ccc([N+](=O)[O-])cc3)CCOCC2)cc1	0.31%	72.8%
O=c1[nH]c2c(s1)C(c1cccnc1)C1C3CCC(C3)C1S2 (configuration not stated)	7.76%	71.9%
COc1ccc(CSc2nc(C)cc(=O)[nH]2)cc1	41.4%	68.6%
O=c1[nH]c(SCc2ccc(Cl)cc2)nc2c1CCC2	12.6%	78.5%
CCCc1cc(C(=O)N(C2CCCCC2)C2CCCCC2)no1	5.27%	57.6%
O=C1CCCC2=C1C1(CCCC1)N=C(Nc1nc3ccccc3o1)N2	11.2%	78.1%
Cc1cc(C)n(-c2nc(NCCCO)c3c4c(sc3n2)CCCC4)n1	0.45%	74%
COc1ccc(C2CC(c3ccccc3)=NN2c2ccc(S(N)(=O)=O)cc2)cc1 (configuration not stated)	59.6%	70%
O=C(COC(=O)C12CC3CC(CC(C3)C1)C2)NCc1ccco1	84.8%	100%
CCc1oc2ccccc2c1C(=O)c1cc(Br)c(O)c(Br)c1	20.3%	75.6%
O=C(CCNS(=O)(=O)c1cccc2nsnc12)N1CCN(c2ccccn2)CC1	3.36%	71.8%
Cc1ccc(N2CCN(S(=O)(=O)N3CCCCC3)CC2)c(C)c1	0.03%	73.8%
CSc1nc(-c2ccc(C)cc2)nc(C(Cl)Cl)n1	10.8%	42.1%
COc1ccc(S(=O)(=O)N2CCN(S(=O)(=O)c3ccc4c(c3)OCCO4)CC2)cc1	0.64%	55.8%
CCCn1ncc(CN2CCCC(C(=O)c3cccc(OC(C)C)c3)C2)c1C (configuration not stated)	1.55%	79.4%
CC[C@H]1CN2CCc3cc(OC)c(OC)cc3[C@@H]2C[C@@H]1C[C@H]1NCCc2cc(OC)c(OC)cc21	45.4%	89.3%
N#Cc1ccccc1CSc1nc2ncc(Br)cc2[nH]1	29.7%	79.3%
CCN1CCN(c2nc3ccccc3nc2C(C#N)C(=O)OC2CCCCC2)CC1 (configuration not stated)	14.2%	80.8%
Cc1nc(SCc2nc3ccccc3[nH]2)c2oc3ccccc3c2n1	0.22%	70.5%

SMILES	percent remaining with NADPH	percent remaining without NADPH
O=C1C2CC=CCC2C(=O)N1c1n[nH]c(-c2ccccc2)n1 (configuration not stated)	66.9%	71%
CCCc1nc2c(=O)n(C)c(=O)nc-2n(C)n1	65.6%	61.5%
Cc1ccc(S(=O)(=O)NCc2ccc(C(=O)NCCN(Cc3ccccc3)C(C)C)cc2)cc1	0.01%	80.3%
O=c1oc2c(O)c(O)cc3c(=O)oc4c(O)c(O)cc1c4c23	73.1%	93.1%
COc1ccc(Sc2ccc(NC(=O)c3ccccc3Cl)cc2C#N)cc1	27.3%	64.4%
c1ccc(CC2CCN(c3ncnc4sccc34)CC2)cc1	9.66%	54.9%
CCOc1ccc(-c2nc(-c3ccncc3)no2)cc1OCC	25.1%	70.3%
Brc1ccc2c(c1)CN1CCCC1=N2	56.4%	77.8%
N#C/C(=C\c1ccc([N+](=O)[O-])o1)c1nc2ccccc2[nH]1	0.29%	52.4%
O=C(O)CCC(NS(=O)(=O)c1ccc(-c2ccccc2)cc1)C(=O)O (configuration not stated)	75.8%	74.2%
O=S(=O)(NC1CCCCC1N1CCOCC1)c1ccc(Cl)cc1 (configuration not stated)	0.11%	78.2%
Oc1cc(O)cc(/C=C/c2ccc(O)c(O)c2)c1	45.9%	87.6%
CS(=O)(=O)c1ccc(C(=O)OCC(=O)NC23CC4CC(CC(C4)C2)C3)cc1[N+](=O)[O-]	5.75%	81%
CN(C)c1oc(-c2ccc(OCc3ccc(Cl)cc3)cc2)nc1C#N	35.5%	67.2%
O=C(c1ccccn1)N(Cc1cccs1)C1(C(=O)NC2CCCCC2)CCCCC1	0.01%	70.6%
CC1CCCN(C(C(=O)Nc2ccc3c(c2)OCCO3)c2ccccc2)C1 (configuration not stated)	4.43%	79.7%
COc1nc(-c2ccccc2)nnc1-c1ccccc1	8.41%	59.3%
O=C(O)c1ccc(N2C(=O)/C(=C/c3ccc(-c4ccc([N+](=O)[O-])cc4)o3)C=C2c2ccccc2)cc1	67.9%	74.3%
CN(C)C1=C(Cl)C(=O)N(c2ccc(Cl)c(Cl)c2)C1=O	0.26%	36.9%
Brc1cc2c(cc1C1Nc3ccccc3C3C=CCC31)OCO2 (configuration not stated)	28.7%	65.5%
CCOc1ccc(NC(=S)N2CCC(C(O)(c3ccccc3)c3ccccc3)CC2)cc1	22.7%	62%
CCCN1CNc2c(c(=O)[nH]c(=S)n2CCc2ccc(OC)c(OC)c2)C1	48.6%	65%
Cn1cnc([N+](=O)[O-])c1Sc1ncnc2nc[nH]c12	66.6%	66.4%
Cn1nnnc1Sc1ncnc2scc(-c3ccccc3)c12	28.1%	67.5%

The remaining lines, values ahead:

percent remaining with NADPH	percent remaining without NADPH	SMILES
46%	71.2%	CCCC(=O)Nc1cccc(NC(=O)c2ccccc2Br)c1
0.32%	68.5%	COc1ccccc1N(/N=C1\Sc2ccccc2C1=O)C(C)=O
8.76%	72.1%	c1ccc2c(Nc3nnc(-c4ccncc4)s3)cccc2c1
7.15%	87.2%	COc1ccc(C2c3c(ncn(CCN4CCOCC4)c3=N)Oc3ccc4ccccc4c32)cc1OC (configuration not stated)
69.2%	76.8%	CCc1nnc(NC(=O)c2ccc(NS(=O)(=O)c3ccccc3)cc2)s1
61.4%	74.9%	O=C(O)c1cccnc1SCCc1ccccc1
30.6%	65%	C=CCn1c(SCC(=O)c2ccc(O)c(O)c2)nnc1-c1ccccc1OC
1.64%	69.3%	C/C=C/Cn1c(SCCCc2ccccc2)nc2c1c(=O)[nH]c(=O)n2C
0.21%	70.7%	COc1ccc(CNCc2cccc3ccccc23)cc1
2.07%	75.9%	Cc1ccc(C)c(NS(=O)(=O)c2cc(C(=O)Nc3ccccc3-c3ccccc3)ccc2Cl)c1
48.3%	81.5%	CCCOc1ccc(-c2nc(OC)c3ccccc3n2)cc1
24%	48.7%	Cc1ccc(C(=O)n2c3ccccc3c3ccccc32)cc1
25.9%	71.5%	COc1ccc(OC)c(S(=O)(=O)Nc2cnc3ccccc3c2)c1
37.5%	72.6%	Cc1ccc(NC(=O)CCC(=O)N/N=C/c2ccc([N+](=O)[O-])o2)cc1C
34.5%	72.6%	Cc1cc(C(=O)CN2C(=O)CCC2=O)c(C)n1Cc1ccccc1
67.3%	70%	O=C(O)c1ccccc1OCc1ccccc1Br
0.99%	73.4%	Cc1ccnc(NC(=O)CCCOc2cc(=O)n(C)c3ccccc23)c1
11.1%	69.1%	COc1cccc(-c2nc(-c3ccc(NC(=O)Cc4ccccc4OC)cc3)no2)c1
0.08%	69.4%	Cc1ccc(S(=O)(=O)C(c2ccccc2)c2c(C)noc2C)cc1 (configuration not stated)
0.04%	79.6%	O=C(COc1ccccc1Br)NCCc1nc2ccccc2[nH]1
0.06%	64.4%	Cc1cc2c(s1)c1cnn(Cc3ccccc3F)c(=O)c1n2C
52.9%	65.4%	COc1ccc(S(=O)(=O)n2nc(OC(=O)c3ccccc3)cc2N)cc1
35.8%	66.7%	Cc1ccc(C)c(OCCn2cc(C(=O)O)c3ccccc32)c1
64%	78.9%	Cc1ccc(-n2c(N)c(C#N)c(-c3ccccc3)c(C#N)c2=O)cc1
53.7%	100%	COC(=O)c1ccccc1NC(=O)c1ccc(F)cc1
1.54%	39.7%	COc1ccc(N(C(=O)CCl)C(C(=O)NCCc2ccccc2)c2cccs2)cc1Cl (configuration not stated)
68.7%	75.6%	CCOC(=O)C(C)Oc1cccc2c(=O)n(CC(=O)Nc3ccc4c(c3)OCCO4)ccc12 (configuration not stated)
